Reference: patent publication US9650377B2, “Diazepinone derivatives” (Novartis AG, priority 2012, dated 2017)

Assays:
[1] = biological target: human mGluR5a receptors (Homo sapiens (Human), UniProt P41594); test: Inhibition of glutamate-induced elevation of intracellular calcium in L(tk−) cells expressing human mGluR5a receptors; assay type: cell-based; conditions: read-out: mGluR5 IC50
From the text: Activity of compounds of the present invention was examined by determination to what extent the glutamate-induced elevation of the intracellular calcium concentration in L(tk−) cells expressing human mGluR5a receptors (see L. P. Daggett et al., Neuropharm. Vol. 34, pages 871-886, 1995) is inhibited by utilizing methods as described e.g. by L. P. Daggett et al., Neuropharm. Vol. 34, pages 871-886 (1995) and P. J. Flor et al., J. Neurochem. Vol. 67, pages 58-63 (1996).
(§1) Activity of compounds of the present invention with respect to mGluR1 antagonism was examined by an assay based on measurements of L-glutamate induced intracellular calcium increases using a 96 well plate-based Fluorometric Imaging Plate Reader (FLIPR), and CHO cells stably expressing human mGluR1.

[2] = biological target: human mGluR1 (Homo sapiens (Human), UniProt Q13255); test: mGluR1 antagonism: L-glutamate induced intracellular calcium increases, FLIPR, CHO cells stably expressing human mGluR1; assay type: cell-based; conditions: inhibition of glutamate-induced elevation of intracellular calcium
From the text: as §1, with “mGluR1. L-glutamate induced robust calcium responses via human mGluR1 in a concentration-dependent manner and in the low micromolar range. The table below represents IC50 values of the inhibition of the glutamate-induced elevation of the intracellular calcium concentration.” for “mGluR1.”

Sequence of human mGluR5a receptors (P41594 other isoform, or with tags, fused parts or gaps): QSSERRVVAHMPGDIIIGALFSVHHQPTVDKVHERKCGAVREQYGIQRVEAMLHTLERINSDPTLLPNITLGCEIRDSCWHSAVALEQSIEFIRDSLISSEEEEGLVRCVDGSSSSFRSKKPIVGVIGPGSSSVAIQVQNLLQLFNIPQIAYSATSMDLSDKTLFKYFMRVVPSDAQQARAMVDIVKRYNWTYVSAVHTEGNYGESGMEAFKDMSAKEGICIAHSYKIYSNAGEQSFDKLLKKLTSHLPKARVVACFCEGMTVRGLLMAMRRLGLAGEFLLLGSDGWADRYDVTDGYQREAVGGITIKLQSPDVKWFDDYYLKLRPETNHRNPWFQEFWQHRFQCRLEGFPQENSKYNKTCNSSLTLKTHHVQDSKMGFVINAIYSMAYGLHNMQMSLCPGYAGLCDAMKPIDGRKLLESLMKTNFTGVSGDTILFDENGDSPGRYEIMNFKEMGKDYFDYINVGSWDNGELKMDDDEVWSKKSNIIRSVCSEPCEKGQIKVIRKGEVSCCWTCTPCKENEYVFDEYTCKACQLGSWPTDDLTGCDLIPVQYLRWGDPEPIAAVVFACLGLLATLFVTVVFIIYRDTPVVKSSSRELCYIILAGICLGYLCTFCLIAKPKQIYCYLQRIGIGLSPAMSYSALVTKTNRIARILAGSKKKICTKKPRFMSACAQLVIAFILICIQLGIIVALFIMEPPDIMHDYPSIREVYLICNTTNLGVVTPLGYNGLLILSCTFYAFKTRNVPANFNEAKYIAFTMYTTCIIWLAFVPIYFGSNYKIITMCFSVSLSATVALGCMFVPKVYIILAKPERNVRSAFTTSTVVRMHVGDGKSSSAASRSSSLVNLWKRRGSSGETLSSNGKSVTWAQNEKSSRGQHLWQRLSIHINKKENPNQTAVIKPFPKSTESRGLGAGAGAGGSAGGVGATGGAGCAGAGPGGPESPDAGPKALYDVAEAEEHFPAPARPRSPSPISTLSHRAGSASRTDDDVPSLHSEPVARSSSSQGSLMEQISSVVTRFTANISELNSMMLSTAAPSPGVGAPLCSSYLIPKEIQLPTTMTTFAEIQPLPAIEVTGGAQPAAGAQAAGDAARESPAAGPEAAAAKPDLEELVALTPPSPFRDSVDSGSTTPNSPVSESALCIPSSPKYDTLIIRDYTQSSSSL
Sequence of human mGluR1 (Q13255 19-1194): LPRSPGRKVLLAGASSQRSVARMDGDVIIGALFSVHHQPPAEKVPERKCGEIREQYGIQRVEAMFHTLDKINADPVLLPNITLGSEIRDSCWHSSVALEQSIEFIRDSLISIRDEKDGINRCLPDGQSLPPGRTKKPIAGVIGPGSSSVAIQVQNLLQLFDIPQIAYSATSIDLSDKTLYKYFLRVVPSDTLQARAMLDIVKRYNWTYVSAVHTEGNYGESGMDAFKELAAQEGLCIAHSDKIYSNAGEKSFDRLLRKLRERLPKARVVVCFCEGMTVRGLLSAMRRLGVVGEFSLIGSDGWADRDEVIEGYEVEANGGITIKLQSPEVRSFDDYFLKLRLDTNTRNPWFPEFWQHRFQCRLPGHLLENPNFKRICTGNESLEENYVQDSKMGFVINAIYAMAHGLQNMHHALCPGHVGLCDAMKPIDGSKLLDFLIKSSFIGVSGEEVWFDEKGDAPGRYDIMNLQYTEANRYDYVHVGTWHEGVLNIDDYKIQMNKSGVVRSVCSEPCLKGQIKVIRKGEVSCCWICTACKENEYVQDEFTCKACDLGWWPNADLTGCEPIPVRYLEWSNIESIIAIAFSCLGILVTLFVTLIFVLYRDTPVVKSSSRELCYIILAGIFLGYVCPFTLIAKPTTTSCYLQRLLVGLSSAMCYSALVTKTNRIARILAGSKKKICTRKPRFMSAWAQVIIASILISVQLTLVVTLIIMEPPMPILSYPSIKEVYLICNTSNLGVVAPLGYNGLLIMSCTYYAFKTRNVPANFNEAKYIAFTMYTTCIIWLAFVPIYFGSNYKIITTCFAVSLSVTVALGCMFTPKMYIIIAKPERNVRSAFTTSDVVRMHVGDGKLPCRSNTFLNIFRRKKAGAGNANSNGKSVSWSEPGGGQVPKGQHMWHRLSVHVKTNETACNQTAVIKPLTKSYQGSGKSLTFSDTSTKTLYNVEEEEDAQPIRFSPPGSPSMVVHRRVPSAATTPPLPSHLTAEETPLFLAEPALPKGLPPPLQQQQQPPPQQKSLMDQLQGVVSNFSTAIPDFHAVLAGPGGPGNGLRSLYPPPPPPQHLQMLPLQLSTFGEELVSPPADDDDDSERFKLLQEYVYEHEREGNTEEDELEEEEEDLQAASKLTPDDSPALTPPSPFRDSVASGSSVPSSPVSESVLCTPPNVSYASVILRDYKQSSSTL

IC50 [1] | IC50 [2] | SMILES
10 nM | 35 nM | Cn1cc(C2=NCC(=O)N3CCc4c(I)cccc4C3=C2)cn1 [Example 32, 9-iodo-2-(1-methyl-1H-pyrazol-4-yl)-7,8-dihydro-[1,4]diazepino[7,1-a]isoquinolin-5(4H)-one]
340 nM | > 10000 nM | CCOCc1cn(C2=NCC(=O)N3CCc4c(cccc4-c4nc(C)cs4)C3=C2)cn1 [Example 88i, 2-(4-(ethoxymethyl)-1H-imidazol-1-yl)-9-(4-methylthiazol-2-yl)-7,8-dihydro-[1,4]diazepino[7,1-a]isoquinolin-5(4H)-one]
495 nM | > 10000 nM | CCc1cn(C2=NCC(=O)N3CCc4c(cccc4C(C)O)C3=C2)cn1 (racemic) [Example 115, 2-(4-ethyl-1H-imidazol-1-yl)-9-(1-hydroxyethyl)-7,8-dihydro-[1,4]diazepino[7,1-a]isoquinolin-5(4H)-one]

SMILES | IC50 [1] | IC50 [2]
Cc1nc(-c2cccc3c2CCN2C(=O)CN=C(n4cnc(C5CCC5)c4)C=C32)co1 [Example 108b, 2-(4-cyclobutyl-1H-imidazol-1-yl)-9-(2-methyloxazol-4-yl)-7,8-dihydro-[1,4]diazepino[7,1-a]isoquinolin-5(4H)-one] | 23 nM | 1920 nM
